31 compounds from patent US10995091B2 (Proximagen, LLC, priority 2010, dated 2021) can be followed below.

Structures are written as SMILES.

T1 sequence (P61073 whole entry): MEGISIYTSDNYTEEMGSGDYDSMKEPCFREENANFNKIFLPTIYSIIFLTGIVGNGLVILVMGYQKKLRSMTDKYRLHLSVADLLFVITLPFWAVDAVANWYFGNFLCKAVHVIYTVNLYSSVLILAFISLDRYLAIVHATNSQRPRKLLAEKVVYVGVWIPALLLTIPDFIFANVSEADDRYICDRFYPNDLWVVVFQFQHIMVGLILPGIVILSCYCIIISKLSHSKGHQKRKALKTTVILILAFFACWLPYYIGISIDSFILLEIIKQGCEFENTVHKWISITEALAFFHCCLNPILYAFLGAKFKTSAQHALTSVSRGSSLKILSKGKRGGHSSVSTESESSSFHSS

The assay concerns the target T1, Human CXCR4 transfected HEK293 cells (Homo sapiens, UniProt P61073).
T1 construct: expressed in transfected cells; host or cells: HEK293
The assay is described as follows: CXCR4 functional calcium assay (calcium flux FLIPR, antagonism of SDF1 response). In kind it is cell-based. The conditions noted are these: CXCR4 functional activity, antagonism of SDF1 (EC50 concentration), read-out: CXCR4 fKi. The method, then:
The functional activity of test compounds was routinely tested by measuring the ability of compounds to antagonize CXCR4 activity in a dose dependent manner, using a calcium flux Fluorescent Imaging Plate Reader FLIPR assay.
Human CXCR4 transfected HEK293 cells were cultured in Dulbecco's modified Eagles medium containing 4.5 g/L glucose, L-glutamine, pyruvate, 50 µg/mL Geneticin and 250 µg/mL hygromycin B and maintained at 37° C. in a humidified, 5% CO2 controlled atmosphere. Subcultivations were performed every 2-3 d.
At confluence the cells were lifted using Ca^2+ and Mg^2+ free PBS/0.02% (w/v) EDTA, spun at 1000 rpm for 3 min and resuspended at 2.5×10^5 cells/mL. Cells were plated into a 384 well, poly-d-lysine coated, black with clear bottomed plate (Becton Dickinson) at 7500 cells/well. The plates were incubated overnight at 37° C. under 5% CO2. On the day of the experiment the cells were washed with incubation Buffer (HBSS containing 2.5 mM probenecid, 0.1% w/v BSA and 10 mM HEPES, pH 7.4 at 37° C.). After washing, the cells were loaded with Fluo-4 AM dye (Molecular probes) at 2 µM containing 0.48 µg/mL pluronic acid for 60 min at 37° C. under 5% CO2. After thorough washing with incubation buffer the cells were preincubated for 10 min at 37° C. before use.
A combined agonist/antagonist protocol was used to measure changes in intracellular calcium concentration. Compound (antagonist) was added to the cell plate using a Fluorometric Imaging Plate Reader (FLIPR) (Molecular Devices, Sunnyvale, Calif., USA). Basal fluorescence was recorded every second for 10 seconds prior to compound addition (10 μl) and fluorescence recorded every second for 1 min then every 6 seconds for a further 1 min. SDF1[…] (EC50 concentration) was then added using the FLIPR and fluorescence recorded as described above. Curve-fitting and parameter estimation were carried out using GraphPad Prism 4.0 (GraphPad Software Inc., San Diego, Calif.).
A general note: A change in cytosolic calcium serves as a functional read-out for many receptors and channels.
On to `CC(C)N1CCC(N2CCCN(c3cccc(C(=O)NCC4CCOCC4)n3)CC2)CC1` [Example 1, N-(Oxan-4-ylmethyl)-6-{4-[1-(propan-2-yl)piperidin-4-yl]-1,4-diazepan-1-yl}pyridine-2-carboxamide], for which the Ki was 0.1 to 0.5 µM.

For the compound `CC(C)N1CCC(N2CCCN(c3cccc(C(=O)NC4CCOCC4)n3)CC2)CC1` [Example 2, N-(Oxan-4-yl)-6-{4-[1-(propan-2-yl)piperidin-4-yl]-1,4-diazepan-1-yl}pyridine-2-carboxamide], the Ki was in the range of 0.1 to 0.5 µM. As for `CC(C)N1CCC(N2CCCN(c3cccc(C(=O)NCCCn4ccnc4)n3)CC2)CC1` [Example 3, N-[3-(1H-Imidazol-1-yl)propyl]-6-{4-[1-(propan-2-yl)piperidin-4-yl]-1,4-diazepan-1-yl}pyridine-2-carboxamide], the Ki lay within 0.1 to 0.5 µM. As for `CCNC(=O)c1cccc(N2CCCN(C3CCN(C(C)C)CC3)CC2)n1` [Example 4, N-Ethyl-6-{4-[1-(propan-2-yl)piperidin-4-yl]-1,4-diazepan-1-yl}pyridine-2-carboxamide], the Ki lay in the range of 0.1 to 0.5 µM. With `CCCNC(=O)c1cccc(N2CCCN(C3CCN(C(C)C)CC3)CC2)n1` [Example 5, 6-{4-[1-(Propan-2-yl)piperidin-4-yl]-1,4-diazepan-1-yl}-N-propylpyridine-2-carboxamide], the Ki fell in the range of 0.02 to 0.1 µM.

In the case of `CC(C)CNC(=O)c1cccc(N2CCCN(C3CCN(C(C)C)CC3)CC2)n1` [Example 6, N-(2-Methylpropyl)-6-{4-[1-(propan-2-yl)piperidin-4-yl]-1,4-diazepan-1-yl}pyridine-2-carboxamide], the Ki lay within 0.1 to 0.5 µM. Consider `CCCCNC(=O)c1cccc(N2CCCN(C3CCN(C(C)C)CC3)CC2)n1` [Example 7, N-Butyl-6-{4-[1-(propan-2-yl)piperidin-4-yl]-1,4-diazepan-1-yl}pyridine-2-carboxamide], for which the Ki lay within 0.02 to 0.1 µM. In the case of `CC(C)N1CCC(N2CCCN(c3cccc(C(=O)NCCF)n3)CC2)CC1` [Example 8, N-(2-Fluoroethyl)-6-{4-[1-(propan-2-yl)piperidin-4-yl]-1,4-diazepan-1-yl}pyridine-2-carboxamide] it was 0.1 to 0.5 µM. Consider `CC(C)N1CCC(N2CCCN(c3cccc(C(=O)NCC(F)F)n3)CC2)CC1` [Example 9, N-(2,2-Difluoroethyl)-6-{4-[1-(propan-2-yl)piperidin-4-yl]-1,4-diazepan-1-yl}pyridine-2-carboxamide], for which the Ki was 0.1 to 0.5 µM. With `CC(C)N1CCC(N2CCCN(c3cccc(C(=O)NCC(F)(F)F)n3)CC2)CC1` [Example 10, 6-{4-[1-(Propan-2-yl)piperidin-4-yl]-1,4-diazepan-1-yl}-N-(2,2,2-trifluoroethyl)pyridine-2-carboxamide] the figure was 0.1 to 0.5 µM.

Turning to `CC(C)N1CCC(N2CCCN(c3cccc(C(=O)NC4CC4)n3)CC2)CC1` [Example 11, N-Cyclopropyl-6-{4-[1-(propan-2-yl)piperidin-4-yl]-1,4-diazepan-1-yl}pyridine-2-carboxamide], the Ki is 0.1 to 0.5 µM. Take `CC(C)N1CCC(N2CCCN(c3cccc(C(=O)NCCO)n3)CC2)CC1` [Example 12, N-(2-Hydroxyethyl)-6-{4-[1-(propan-2-yl)piperidin-4-yl]-1,4-diazepan-1-yl}pyridine-2-carboxamide]: the Ki is 0.1 to 0.5 µM. With `CC(C)N1CCC(N2CCCN(c3cccc(C(=O)NCCC#N)n3)CC2)CC1` [Example 13, N-(2-Cyanoethyl)-6-{4-[1-(propan-2-yl)piperidin-4-yl]-1,4-diazepan-1-yl}pyridine-2-carboxamide] the figure was 0.1 to 0.5 µM; with `COCCNC(=O)c1cccc(N2CCCN(C3CCN(C(C)C)CC3)CC2)n1` [Example 14, N-(2-Methoxyethyl)-6-{4-[1-(propan-2-yl)piperidin-4-yl]-1,4-diazepan-1-yl}pyridine-2-carboxamide], 0.02 to 0.1 µM; with `COCCCNC(=O)c1cccc(N2CCCN(C3CCN(C(C)C)CC3)CC2)n1` [Example 15, N-(3-Methoxypropyl)-6-{4-[1-(propan-2-yl)piperidin-4-yl]-1,4-diazepan-1-yl}pyridine-2-carboxamide], 0.1 to 0.5 µM. `CC(C)N1CCC(N2CCCN(c3cccc(C(=O)NCCN(C)C)n3)CC2)CC1` [Example 16, N-[2-(Dimethylamino)ethyl]-6-{4-[1-(propan-2-yl)piperidin-4-yl]-1,4-diazepan-1-yl}pyridine-2-carboxamide]: the Ki fell in the range of 0.1 to 0.5 µM.

Regarding `CC(C)CN(C)C(=O)c1cccc(N2CCCN(C3CCN(C(C)C)CC3)CC2)n1` [Example 17, N-Methyl-N-(2-methylpropyl)-6-{4-[1-(propan-2-yl)piperidin-4-yl]-1,4-diazepan-1-yl}pyridine-2-carboxamide], the Ki is 0.5 to 1 µM. For `CC(C)N1CCC(N2CCCN(c3cccc(C(=O)N[C@H]4CCOC4)n3)CC2)CC1` [Example 18, N-[(3S)-Oxolan-3-yl]-6-{4-[1-(propan-2-yl)piperidin-4-yl]-1,4-diazepan-1-yl}pyridine-2-carboxamide], the Ki fell in the range of 0.1 to 0.5 µM.

`CC(C)N1CCC(N2CCCN(c3cccc(C(=O)N[C@@H]4CCOC4)n3)CC2)CC1` [Example 19, N-[(3R)-Oxolan-3-yl]-6-{4-[1-(propan-2-yl)piperidin-4-yl]-1,4-diazepan-1-yl}pyridine-2-carboxamide]: the Ki is 0.1 to 0.5 µM. `CC(C)N1CCC(N2CCCN(c3cccc(C(=O)NC[C@H]4CCCO4)n3)CC2)CC1` [Example 20, N-[(2R)-Oxolan-2-ylmethyl]-6-{4-[1-(propan-2-yl)piperidin-4-yl]-1,4-diazepan-1-yl}pyridine-2-carboxamide]: the Ki was 0.1 to 0.5 µM. On to `CC(C)N1CCC(N2CCCN(c3cccc(C(=O)N4CCc5ccccc54)n3)CC2)CC1` [Example 21, 1-[(6-{4-[1-(Propan-2-yl)piperidin-4-yl]-1,4-diazepan-1-yl}pyridin-2-yl)carbonyl]-2,3-dihydro-1H-indole], for which the Ki was in the range of 0.1 to 0.5 µM. Consider `CC(C)N1CCC(N2CCCN(c3cccc(C(=O)N4CCc5ccccc5C4)n3)CC2)CC1` [Example 22, 2-[(6-{4-[1-(Propan-2-yl)piperidin-4-yl]-1,4-diazepan-1-yl}pyridin-2-yl)carbonyl]-1,2,3,4-tetrahydroisoquinoline], for which the Ki was in the range of 0.1 to 0.5 µM. With `CC(C)N1CCC(N2CCCN(c3cccc(C(=O)Nc4ccccc4)n3)CC2)CC1` [Example 23, N-Phenyl-6-{4-[1-(propan-2-yl)piperidin-4-yl]-1,4-diazepan-1-yl}pyridine-2-carboxamide], the Ki was under 0.02 µM. Regarding `CC(C)N1CCC(N2CCCN(c3cccc(C(=O)Nc4ccccc4O)n3)CC2)CC1` [Example 24, N-(2-Hydroxyphenyl)-6-{4-[1-(propan-2-yl)piperidin-4-yl]-1,4-diazepan-1-yl}pyridine-2-carboxamide], the Ki fell in the range of 0.02 to 0.1 µM. For the compound `CC(C)N1CCC(N2CCCN(c3cccc(C(=O)Nc4ccc(Cl)cc4)n3)CC2)CC1` [Example 25, N-(4-Chlorophenyl)-6-{4-[1-(propan-2-yl)piperidin-4-yl]-1,4-diazepan-1-yl}pyridine-2-carboxamide], the Ki lay within 0.1 to 0.5 µM. For `COc1ccc(NC(=O)c2cccc(N3CCCN(C4CCN(C(C)C)CC4)CC3)n2)cc1` [Example 26, N-(4-Methoxyphenyl)-6-{4-[1-(propan-2-yl)piperidin-4-yl]-1,4-diazepan-1-yl}pyridine-2-carboxamide], the Ki lay within 0.02 to 0.1 µM. Consider `Cc1ccc(NC(=O)c2cccc(N3CCCN(C4CCN(C(C)C)CC4)CC3)n2)cc1` [Example 27, N-(4-Methylphenyl)-6-{4-[1-(propan-2-yl)piperidin-4-yl]-1,4-diazepan-1-yl}pyridine-2-carboxamide], for which the Ki is 0.02 to 0.1 µM. For the compound `CC(C)N1CCC(N2CCCN(c3cccc(C(=O)Nc4ccccn4)n3)CC2)CC1` [Example 28, 6-{4-[1-(Propan-2-yl)piperidin-4-yl]-1,4-diazepan-1-yl}-N-(pyridin-2-yl)pyridine-2-carboxamide], the Ki was under 0.02 µM. As to `CC(C)N1CCC(N2CCCN(c3cccc(C(=O)Nc4cccnc4)n3)CC2)CC1` [Example 29, 6-{4-[1-(Propan-2-yl)piperidin-4-yl]-1,4-diazepan-1-yl}-N-(pyridin-3-yl)pyridine-2-carboxamide], the Ki was in the range of 0.02 to 0.1 µM. In the case of `CC(C)N1CCC(N2CCCN(c3cccc(C(=O)Nc4nccs4)n3)CC2)CC1` [Example 31, 6-{4-[1-(Propan-2-yl)piperidin-4-yl]-1,4-diazepan-1-yl}-N-(1,3-thiazol-2-yl)pyridine-2-carboxamide] it was under 0.02 µM. On to `CC(C)N1CCC(N2CCCN(c3cccc(C(=O)Nc4cncs4)n3)CC2)CC1` [Example 32, 6-{4-[1-(Propan-2-yl)piperidin-4-yl]-1,4-diazepan-1-yl}-N-(1,3-thiazol-5-yl)pyridine-2-carboxamide], for which the Ki is under 0.02 µM.
